Patent US11744896B2, “Compositions, use, and method for CDK2-PROTACs for cancer therapy and hearing loss” (Creighton University, priority 2020, dated 2023)
Entries after “also recorded” stand apart in the source; their conditions may differ. Like-named read-outs stand apart in the source and are kept apart here.

What was measured:
[1] = test system: CDK1, CDK5, CDK7 or CDK9; assay: Abundance of closely related CDKs in HEI-OC1 cells (immunoblot); assay type: cell-based; settings: 24 hours
From the text: (§1) Specific bands were quantified using ImageJ (NIH).

[2] = molecular target: CDK2 (Mus musculus, UniProt P97377); settings: HEI-OC1 cells; for CDK2 degradation (immunoblot): 0.1 nM to 1 μM
Protocol: HEI-OC1 cells were maintained in DMEM with 10% of Fetal bovine serum at 33° C. in a 10% CO2 atmosphere. […] Cells were harvested in RIPA buffer (NaCl 150 mM, Tris-HCl 50 mM, Nonidet-40 1%, Sodium deoxycholate 0.5%, SDS 0.1%, pH 7.4) containing protease (Sigma-Aldrich, MO P8340) and phosphatase inhibitors (ThermoFisher, CA, A32957) for immunoblot analysis.
Lysates were prepared after a 24 hours incubation and processed for Western blot analysis.
Membranes were blocked for 1 hour at room temperature with 3% milk followed by overnight incubation with the primary antibody in 3% milk. After several washes and the secondary incubation for 1 hour, membranes were developed employing an iBright FL1000 (ThermoFisher, CA). Immunoblots were stripped and probed for β-actin as the loading control. Specific bands were quantified using ImageJ (NIH).

[3] = molecular target: T1, CDK2 (Homo sapiens, UniProt P24941); assay: CDK2 degradation in HeLa cell line (immunoblot); assay type: cell-based; settings: HeLa cells incubated overnight, different concentrations
T1 construct: endogenous in cells; host or cells: HeLa
Protocol: (§2) To test the efficacy of the synthesized AZD5438-PROTACs, HeLa cells were incubated overnight with different concentrations of AZD5438-PROTAC Examples 1, 2, 5, and 6.

[4] = test system: cisplatin-induced hearing loss; settings: mouse; previous work; cited from earlier work
[5] = test system: CDK2; assay: CDK2 abundance in total zebrafish lysates (immunoblot); assay type: in vivo, zebrafish (Danio rerio); settings: at concentrations of 0.1 nM and 1 μM
Protocol: (§3) The next day fish were transferred to a fresh solution of kainic acid 300 μM for 50 min, led recover in fresh E3 media for 2 hours, and fixed with 4% paraformaldehyde. Animals were processed for immunofluorescence analysis as described for the cisplatin treatments. After the 24 hours incubation with PROTAC-8 and before the incubation with the ototoxin, some fish were collected for immunoblot analysis of CDK2 abundance.
as §1
Further to find the effect of AZD5438-PROTAC 8 (Example 2) in protecting zebrafish hair cells from cisplatin otoxicity, zebrafish were pre-incubated with AZD5438-PROTAC 8 and then co-incubated with cisplatin for six hours. […] To check the degradation of CDK2 in zebrafish, fish were treated with AZD5438-PROTAC 8 in different concentration and total zebrafish lysates used for immunoblots (FIG. 12B). AZD5438-PROTAC 8 degrades CDK2 at concentrations of 0.1 nM and 1 μM (FIGS. 12B-12C).

[6] = test system: neuromast hair cells; assay: Zebrafish neuromast hair cell protection from kainic acid; assay type: in vivo, zebrafish (Danio rerio); settings: kainic acid 300 μM for 50 min after pre-treatment
Protocol: Four days post-fertilization (dpf) zebrafish (Danio rerio) larvae were obtained by pair mating of adult TuAB fish maintained at Creighton University by standard methods approved by the Institutional Animal Care and Use Committee. Experimental fish were maintained at 28.5° C. in E3 media (5 mM NaCl, 0.17 mM KCl, 0.33 mM CaCl2 and […] MgSO4, pH 7.2) until the day of the experiment.
as §3
(§4) Control animals were exposed to 0.1% DMSO in E3 media. Images were taken employing a Zeiss LSM 710 confocal microscope with a 63× oil objective.
For the screening of the effect of PROTAC-8, neuromast hair cell counts were performed manually, employing a Zeiss AxioSkop 2 fluorescence microscope with a 40× oil objective. Confocal imaging was performed using a Zeiss LSM 710 confocal laser scanning image system with a 63× oil objective. Images were captured at room temperature with automatically set sectioning. The acquired images were processed with ZEN black edition software. […]

[7] = test system: zebrafish lateral line neuromast hair cells; assay: Zebrafish neuromast hair cell protection from cisplatin; assay type: in vivo; settings: for protection of zebrafish lateral line neuromast hair cells from cisplatin toxicity: pre-incubation, then co-incubation with cisplatin for 6 hours
From the text: Four days post-fertilization (dpf) zebrafish (Danio rerio) larvae were obtained by pair mating of adult TuAB fish maintained at Creighton University by standard methods approved by the Institutional Animal Care and Use Committee.
Animals were immunostained for the hair cell marker, otoferlin (HCS-1, DSHB), and process for fluorescence microscopy. Otic, middle, and opercular neuromasts were identified, and hair cells were manually counted using a Zeiss AxioSkop 2 fluorescence microscope with a 40× oil objective.
as §4
For the screening of the effect of PROTAC-8, neuromast hair cell counts were performed manually, employing a Zeiss AxioSkop 2 fluorescence microscope with a 40× oil objective. Confocal imaging was performed using a Zeiss LSM 710 confocal laser scanning image system with a 63× oil objective. Images were captured at room temperature with automatically set sectioning. The acquired images were processed with ZEN black edition software. Z-stack images are presented as flat Z-projections.

[8] = test system: cochlear explants; settings: cited from earlier work
[9] = test system: zebrafish lateral line neuromast hair cells; settings: zebrafish lateral line neuromasts, background statement, cited from earlier work
[10] = molecular target: T2, CDK9 (Homo sapiens, UniProt P50750); assay: CDK9 degradation in HeLa cell line (immunoblot); assay type: cell-based; settings: HeLa cells incubated overnight
T2 construct: endogenous in cells; host or cells: HeLa
T2 sequence (P50750 whole entry): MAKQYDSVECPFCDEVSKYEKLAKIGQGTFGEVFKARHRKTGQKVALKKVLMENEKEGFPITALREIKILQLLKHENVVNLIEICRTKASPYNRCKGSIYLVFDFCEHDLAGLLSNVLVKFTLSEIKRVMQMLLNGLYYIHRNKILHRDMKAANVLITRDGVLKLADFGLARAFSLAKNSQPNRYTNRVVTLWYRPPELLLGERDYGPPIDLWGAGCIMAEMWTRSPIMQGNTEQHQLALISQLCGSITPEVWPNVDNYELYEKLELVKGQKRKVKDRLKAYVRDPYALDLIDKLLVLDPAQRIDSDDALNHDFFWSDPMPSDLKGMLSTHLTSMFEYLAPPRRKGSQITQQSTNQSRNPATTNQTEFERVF
Protocol: as §2

[11] = molecular target: T3, CDK1 (Homo sapiens, UniProt P06493); assay: CDK1 degradation in HeLa cell line (immunoblot); assay type: cell-based; settings: HeLa cells incubated overnight
T3 construct: endogenous in cells; host or cells: HeLa
T3 sequence (P06493 whole entry): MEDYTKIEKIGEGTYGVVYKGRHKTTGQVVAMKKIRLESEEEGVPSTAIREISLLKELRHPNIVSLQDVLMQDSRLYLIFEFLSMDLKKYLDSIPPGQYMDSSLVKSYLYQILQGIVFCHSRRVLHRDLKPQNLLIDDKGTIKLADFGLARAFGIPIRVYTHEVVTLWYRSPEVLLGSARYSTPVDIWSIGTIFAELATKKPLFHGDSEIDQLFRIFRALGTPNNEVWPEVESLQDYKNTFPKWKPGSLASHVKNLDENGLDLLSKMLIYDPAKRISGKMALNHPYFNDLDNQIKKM
Protocol: as §2

CDK2 degradation (immunoblot) ([2]; 24 hours) | SMILES | degradation / abundance of closely related CDKs (CDK1, CDK5, CDK7, CDK9); selectivity [1] | CDK2 degradation (immunoblot) [3] | protection against cisplatin-induced ototoxicity / hearing loss in vivo [4] | CDK2 degradation in zebrafish [5] | protection of neuromast hair cells from kainic acid damage [6] | other results
did not show any CDK2 degradation | Cc1ncsc1-c1ccc(CNC(=O)[C@@H]2C[C@@H](O)CN2C(=O)[C@@H](NC(=O)COCCn2cc(CO[C@H]3CC[C@H](NC(=O)c4n[nH]cc4NC(=O)c4c(F)cccc4F)CC3)nn2)C(C)(C)C)cc1 [Example 4, 4-(2,6-difluorobenzamido)-N-((1S,4r)-4-((1-(2-(2-(((S)-1-((2S,4R)-4-hydroxy-2-((4-(4-methylthiazol-5-yl)benzyl)carbamoyl)pyrrolidin-1-yl)-3,3-dimethyl-1-oxobutan-2-yl)amino)-2-oxoethoxy)ethyl)-1H-1,2,3-triazol-4-yl)methoxy)cyclohexyl)-1H-pyrazole-3-carboxamide] | nor changes in the abundance of any of the closely related CDKs | – | – | – | – | –
did not show any CDK2 degradation | Cc1ncc(-c2ccnc(Nc3ccc(S(=O)(=O)CCCc4cn(CCOCCOCCOCCNc5cccc6c5C(=O)N(C5CCC(=O)NC5=O)C6=O)nn4)cc3)n2)n1C(C)C (centres unmarked) [Example 1, 2-(2,6-dioxopiperidin-3-yl)-4-((2-(2-(2-(2-(4-(3-((4-((4-(1-isopropyl-2-methyl-1H-imidazol-5-yl)pyrimidin-2-yl)amino)phenyl)sulfonyl)propyl)-1H-1,2,3-triazol-1-yl)ethoxy)ethoxy)ethoxy)ethyl)amino)isoindoline-1,3-dione] | nor changes in the abundance of any of the closely related CDKs | only the treatment with AZD5438-PROTAC-8 resulted in the degradation of CDK2 | – | – | – | –
– | Cc1ncc(-c2ccnc(Nc3ccc(S(C)(=O)=O)cc3)n2)n1C(C)C [AZD5438] | – | – | best protection against cisplatin-induced ototoxicity; also recorded: fully protects against cisplatin-induce hearing loss in mice by local delivery; also recorded: can prevent cisplatin-induced ototoxicity in vivo; also recorded: hair cell loss was reduced | without CDK2 degradation | able to protect the zebrafish lateral line neuromasts from cisplatin and kainic acid damage | protection of zebrafish lateral line neuromast hair cells from cisplatin toxicity [7]: able to protect the zebrafish lateral line neuromasts from cisplatin and kainic acid damage; IC50 ([8]; cochlear explants, cisplatin, read-out: IC50, protection against cisplatin toxicity in cochlear explants): 5 nM; protection against cisplatin-induced ototoxicity in mouse cochlear explants ([8]; previous study): best protection against cisplatin-induced ototoxicity; protection of zebrafish lateral line against cisplatin ototoxicity (earlier studies) [9]: hair cell loss was reduced; protection of zebrafish lateral line against cisplatin ototoxicity (earlier studies) ([9]; listed as ACD5438): protects zebrafish lateral line against cisplatin ototoxicity
– | Cc1ncsc1-c1ccc(CNC(=O)[C@@H]2C[C@@H](O)CN2C(=O)[C@@H](NC(=O)COCCn2cc(CCCS(=O)(=O)c3ccc(Nc4nccc(-c5cnc(C)n5C(C)C)n4)cc3)nn2)C(C)(C)C)cc1 [Example 2, (2S,4R)-4-hydroxy-1-((S)-2-(2-(2-(4-(3-((4-((4-(1-isopropyl-2-methyl-1H-imidazol-5-yl)pyrimidin-2-yl)amino)phenyl)sulfonyl)propyl)-1H-1,2,3-triazol-1-yl)ethoxy)acetamido)-3,3-dimethylbutanoyl)-N-(4-(4-methylthiazol-5-yl)benzyl)pyrrolidine-2-carboxamide] | selective for CDK2 degradation | resulted in the degradation of CDK2 | – | degrades CDK2 | able to protect the zebrafish lateral line neuromasts from cisplatin and kainic acid damage | CDK9 degradation (immunoblot) [10]: No significant degradation; CDK2 degradation on co-incubation with proteasome inhibitor MG-132 ([2]; 100 nM PROTAC-8 and 300 nM MG-132, 24 hours): abolished CDK2 degradation; CDK2 degradation ([2]; 24 hours, 100 nM concentration): around 50%; DC50 ([2]; read-out: half maximal degradation concentration (DC50), CDK2 degradation): > 1000 nM; CDK1 degradation (immunoblot) [11]: No significant degradation; protection of zebrafish hair cells from cisplatin ototoxicity (FIG. 11A) ([7]; five-day post-fertilization fish, 1 hour pre-incubation, 6 hours co-incubation with cisplatin 400 μM): protects zebrafish hair cells from cisplatin otoxicity; protection of zebrafish lateral line neuromast hair cells from cisplatin toxicity ([7]; listed as AZD5438-PROTAC 8): significantly protects the zebrafish lateral line neuromasts from cisplatin toxicity; protection of zebrafish lateral line neuromast hair cells from cisplatin toxicity ([7]; listed as PROTAC-8): able to protect the zebrafish lateral line neuromasts from cisplatin and kainic acid damage; toxic effect of PROTAC alone on neuromast hair cells ([7]; zebrafish, without cisplatin (FIG. 11A)): did not show any toxic effect
did not show any CDK2 degradation | O=C1CCC(N2C(=O)c3cccc(NCCOCCOCCOCCn4cc(CO[C@H]5CC[C@H](NC(=O)c6n[nH]cc6NC(=O)c6c(F)cccc6F)CC5)nn4)c3C2=O)C(=O)N1 (some centres unmarked) [Example 3, 4-(2,6-difluorobenzamido)-N-((1r,4r)-4-((1-(2-(2-(2-(2-((2-(2,6-dioxopiperidin-3-yl)-1,3-dioxoisoindolin-4-yl)amino)ethoxy)ethoxy)ethoxy)ethyl)-1H-1,2,3-triazol-4-yl)methoxy)cyclohexyl)-1H-pyrazole-3-carboxamide] | nor changes in the abundance of any of the closely related CDKs | – | – | – | – | –
– | O=C(NC1CCNCC1)c1n[nH]cc1NC(=O)c1c(Cl)cccc1Cl [AT7519] | – | – | can prevent cisplatin-induced ototoxicity in vivo | – | – | –
